Series [1] addresses T1, Epidermal growth factor receptor (Homo sapiens, UniProt P00533). Put plainly: Inhibition of human EGFR using poly[Glu:Tyr] (4:1) as substrate in presence of [gamma33P]ATP by radiometric HotSpot assay.
In series [2] the target is T1, Epidermal growth factor receptor. The settings on record: dose 100.0 nM.
Description: Inhibition of human EGFR at 100 nM using poly[Glu:Tyr] (4:1) as substrate in presence of [gamma33P]ATP by radiometric HotSpot assay relative to control
A short description of series [3]: Protein binding in plasma (unknown origin) assessed as unbound fraction at 5 uM by LC-MS/MS based equilibrium dialysis analysis.
The target of series [4] is T1, Epidermal growth factor receptor. Kind of series: Inhibition of EGFR (unknown origin) using Tyr 04 peptide as substrate incubated for 1 hr by Z'-LYTE assay.
Series [5] in a line: Metabolic stability in pooled human liver microsomes assessed as Clearance at 3 uM measured up to 45 mins in presence of NADPH by LC-MS/MS analysis. The series is classed as ADME, Microsome. The conditions noted are these: for microsomal CLint at 3 µM: pooled liver microsomes, read-out: CLH.
Series [6] is described as follows: Metabolic stability in pooled human liver microsomes assessed as half life at 3 uM measured up to 45 mins in presence of NADPH by LC-MS/MS analysis. The conditions noted are these: for half-life at 3 µM: pooled liver microsomes. The series is classed as ADME, Microsome.
Series [7] has as its target T1, Epidermal growth factor receptor. The settings on record: dose 100.0 nM, time 1.0 hrs.
Series [8] in a line: Apparent permeability from basolateral to apical side in human Caco2 cells at 10 uM measured for 120 mins by LC-MS/MS analysis. The settings on record: for Papp: caco-2, 2 h, 10 µM; for Papp B→A at 2 h, 10 µM: Caco-2.
Series [9] is described as follows: physchem. The settings on record: phosphate buffered saline, pH 7.4.
A short description of series [10]: Apparent permeability from apical to basolateral side in human Caco2 cells at 10 uM measured for 120 mins by LC-MS/MS analysis. The conditions noted are these: for Papp: caco-2, 2 h, 10 µM; for Papp A→B at 2 h, 10 µM: Caco-2.
The nature of series [11]: Efflux ratio of apparent permeability across basolateral to apical side over apical to basolateral side in human Caco2 cells at 10 uM measured for 120 mins by LC-MS/MS analysis.
The subject of series [12] is A-431. Kind of series: Antiproliferative activity against human A431 cells. The series is classed as functional, cell-based.
The test system of series [13] is BaF3. Kind of series: Antiproliferative activity against mouse Ba/F3 cells expressing EGFR-L858R mutant assessed as inhibition of cell growth incubated for 48 hrs by XTT assay. The conditions noted are these: BaF3, 48 h. The class given is functional, cell-based.
The target of series [14] is Voltage-gated inwardly rectifying potassium channel KCNH2 (Homo sapiens, UniProt Q12809). Kind of series: Inhibition of human ERG expressed in CHO cells at -80 mV holding potential by IonWorks patch-clamp electrophysiology assay.

Molecules are shown by their SMILES. Converted amounts (≈) assume the structure as drawn. Where only a bound is given, the exact number is not on record here.

T1 sequence (P00533 whole entry): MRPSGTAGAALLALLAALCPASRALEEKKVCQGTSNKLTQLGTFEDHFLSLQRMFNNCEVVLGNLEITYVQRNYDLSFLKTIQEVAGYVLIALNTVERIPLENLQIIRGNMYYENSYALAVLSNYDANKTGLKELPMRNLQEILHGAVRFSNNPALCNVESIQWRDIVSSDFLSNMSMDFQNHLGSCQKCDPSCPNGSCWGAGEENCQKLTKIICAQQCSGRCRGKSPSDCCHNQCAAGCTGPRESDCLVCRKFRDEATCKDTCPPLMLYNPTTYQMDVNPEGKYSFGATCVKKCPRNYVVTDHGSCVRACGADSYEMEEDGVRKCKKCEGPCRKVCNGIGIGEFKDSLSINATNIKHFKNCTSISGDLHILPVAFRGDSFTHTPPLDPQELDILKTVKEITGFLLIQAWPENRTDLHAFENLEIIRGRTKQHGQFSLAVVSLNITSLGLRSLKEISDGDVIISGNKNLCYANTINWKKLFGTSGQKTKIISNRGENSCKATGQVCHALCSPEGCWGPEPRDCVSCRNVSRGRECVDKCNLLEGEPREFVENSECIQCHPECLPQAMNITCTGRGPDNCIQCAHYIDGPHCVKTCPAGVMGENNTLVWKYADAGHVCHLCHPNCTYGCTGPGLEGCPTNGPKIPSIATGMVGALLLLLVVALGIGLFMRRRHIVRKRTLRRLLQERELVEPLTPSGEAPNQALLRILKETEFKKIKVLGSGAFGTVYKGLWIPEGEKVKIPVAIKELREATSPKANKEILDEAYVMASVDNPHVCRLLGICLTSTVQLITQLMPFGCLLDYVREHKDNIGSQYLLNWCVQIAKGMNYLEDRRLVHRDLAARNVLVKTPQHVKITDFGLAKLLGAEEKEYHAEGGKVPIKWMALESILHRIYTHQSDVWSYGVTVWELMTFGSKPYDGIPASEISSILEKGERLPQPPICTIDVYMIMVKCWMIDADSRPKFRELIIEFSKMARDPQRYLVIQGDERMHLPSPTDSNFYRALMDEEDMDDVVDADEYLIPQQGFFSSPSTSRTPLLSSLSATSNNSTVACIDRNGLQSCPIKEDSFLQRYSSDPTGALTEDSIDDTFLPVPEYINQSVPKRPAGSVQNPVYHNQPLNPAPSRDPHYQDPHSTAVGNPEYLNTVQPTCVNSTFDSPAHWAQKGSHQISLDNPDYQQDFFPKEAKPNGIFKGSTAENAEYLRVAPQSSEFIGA
Voltage-gated inwardly rectifying potassium channel KCNH2, sequence (Q12809 whole entry): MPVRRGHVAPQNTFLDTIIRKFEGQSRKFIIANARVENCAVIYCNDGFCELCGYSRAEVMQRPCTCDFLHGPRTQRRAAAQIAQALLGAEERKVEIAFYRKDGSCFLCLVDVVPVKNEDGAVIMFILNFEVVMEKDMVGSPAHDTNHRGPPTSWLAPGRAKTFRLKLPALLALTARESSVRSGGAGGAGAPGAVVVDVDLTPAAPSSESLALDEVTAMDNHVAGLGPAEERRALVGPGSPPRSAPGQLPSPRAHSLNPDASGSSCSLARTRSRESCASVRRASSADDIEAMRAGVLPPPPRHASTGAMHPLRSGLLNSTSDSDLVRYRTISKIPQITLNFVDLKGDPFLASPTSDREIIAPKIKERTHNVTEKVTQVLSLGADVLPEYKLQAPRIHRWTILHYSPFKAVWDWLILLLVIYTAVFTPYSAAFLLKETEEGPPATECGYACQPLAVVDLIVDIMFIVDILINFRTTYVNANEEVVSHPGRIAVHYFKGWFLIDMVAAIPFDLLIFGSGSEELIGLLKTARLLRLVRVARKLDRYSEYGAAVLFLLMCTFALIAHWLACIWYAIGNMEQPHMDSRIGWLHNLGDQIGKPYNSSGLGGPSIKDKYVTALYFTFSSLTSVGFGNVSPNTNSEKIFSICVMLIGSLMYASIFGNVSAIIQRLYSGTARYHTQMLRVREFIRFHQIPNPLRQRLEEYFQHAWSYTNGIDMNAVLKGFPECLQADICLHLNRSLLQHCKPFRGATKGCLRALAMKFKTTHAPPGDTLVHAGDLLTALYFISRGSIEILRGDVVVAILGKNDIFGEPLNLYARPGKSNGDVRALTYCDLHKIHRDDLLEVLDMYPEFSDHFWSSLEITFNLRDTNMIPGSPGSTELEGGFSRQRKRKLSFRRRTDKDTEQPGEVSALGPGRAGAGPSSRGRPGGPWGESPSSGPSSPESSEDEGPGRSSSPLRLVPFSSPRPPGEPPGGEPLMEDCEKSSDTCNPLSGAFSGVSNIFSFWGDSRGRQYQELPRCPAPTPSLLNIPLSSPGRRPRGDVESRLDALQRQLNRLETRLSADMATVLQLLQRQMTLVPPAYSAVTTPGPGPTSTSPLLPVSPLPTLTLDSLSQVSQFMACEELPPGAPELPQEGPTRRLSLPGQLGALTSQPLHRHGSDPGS

Consider `COc1cc(NC(C)=O)ccc1-c1cc2c(N[C@H](CO)c3ccccc3)ncnc2[nH]1`, for which the concentration for half-maximal inhibition (IC50) in series [1] was found to be 0.8 nM. This molecule registered an inhibition in series [2] of 98%.
The matching figures for `OC[C@@H](Nc1ncnc2[nH]c(-c3cccnc3)cc12)c1ccccc1`: 2.2 nM and 92%.
The matching figures for `CC(C)Oc1ccccc1-c1cc2c(N[C@H](C)c3ccccc3)ncnc2[nH]1`: 0.6 nM and 98%.
The matching figures for `CS(=O)(=O)c1ccc(-c2cc3c(N[C@H](CO)c4ccccc4)ncnc3[nH]2)cc1`: 0.8 nM and 96%.
In the case of `OCc1ccc(-c2cc3c(N[C@H](CO)c4ccccc4)ncnc3[nH]2)cc1`, the fraction unbound at 5 µM in series [3] was 0.11. In series [4], the IC50 came to 0.2 nM. In addition, in series [5], the microsomal CLint at 3 µM stood at 5.21 µL/min/mg. Besides, the half-life at 3 µM in series [6] came out at 4.43 h. In [7], this molecule returned an inhibition of 98%.
`CCOc1ccccc1-c1cc2c(N[C@H](C)c3ccccc3)ncnc2[nH]1`: the IC50 in [1] is 0.3 nM. This molecule displayed an inhibition in series [2] of 99%.
As for `C[C@@H](Nc1ncnc2[nH]c(-c3ccccc3OC(F)(F)F)cc12)c1ccccc1`, the IC50 in [1] was found to be 4.3 nM. In series [2], this molecule came in with an inhibition of 92%.
As to `C[C@@H](Nc1ncnc2[nH]c(-c3ccc(C(N)=O)cc3)cc12)c1ccccc1`, in [1], the IC50 worked out at 0.8 nM. Further, in series [2], the inhibition came out at 97%.
The matching figures for `COc1cccc(OC)c1-c1cc2c(N[C@H](C)c3ccccc3)ncnc2[nH]1`: 0.6 nM and 97%.
With `COc1cc(CNCCS(C)(=O)=O)ccc1-c1cc2c(N[C@H](CO)c3ccccc3)ncnc2[nH]1`, in series [1], the IC50 is 0.4 nM. The molecule further displayed an inhibition in series [2] of 100%.
The like results for `COc1cc(NS(C)(=O)=O)ccc1-c1cc2c(N[C@H](C)c3ccccc3)ncnc2[nH]1` were, in that order, 0.7 nM and 100%.
The matching figures for `C[C@@H](Nc1ncnc2[nH]c(-c3ccc(S(N)(=O)=O)cc3)cc12)c1ccccc1`: 0.7 nM and 96%.
Turning to `OC[C@@H](Nc1ncnc2[nH]c(-c3ccncc3)cc12)c1ccccc1`, the IC50 in series [1] amounted to 2 nM. The inhibition in series [2] was found to be 94%.
The matching figures for `COc1cnccc1-c1cc2c(N[C@H](CO)c3ccccc3)ncnc2[nH]1`: 0.6 nM and 97%.
Take `C[C@@H](Nc1ncnc2[nH]c(-c3ccc(NS(C)(=O)=O)cc3)cc12)c1ccccc1`: the IC50 in [1] amounted to 0.3 nM. Besides, the Papp in series [8] is recorded as 26.9 10^-6 cm/s; in series [10] it was 0.03 10^-6 cm/s. The solubility (kinetic) at 2 h in series [9] amounted to 37.5 µM (≈ 15.3 µg/mL). Moreover, the Ratio in series [11] (caco-2, 2 h, 10 µM) was found to be 23.7. For the same molecule, the microsomal CLint at 3 µM in series [5] worked out at 21.2 µL/min/mg. Moreover, the half-life at 3 µM in series [6] amounted to 1.09 h. Also, the inhibition in series [2] was determined as 98%.
As for `CN(C)CCNCc1cc(-c2cc3c(N[C@H](CO)c4ccccc4)ncnc3[nH]2)ccc1F`, the IC50 in [1] turned out to be 1.2 nM. Further, the apparent permeability from basolateral to apical (Papp B→A) at 2 h, 10 µM in [8] came to 9.6 ×10⁻⁶ cm/s. In addition, the kinetic solubility at 2 h in series [9] was more than 100 µM. Also, the apparent permeability from apical to basolateral (Papp A→B) at 2 h, 10 µM in series [10] came out at 1.6 ×10⁻⁶ cm/s. In series [11] (Caco-2), the efflux ratio at 2 h, 10 µM is 5.9. Moreover, in [5] (microsomes, 0.75 h, 3 µM), the CLH was 2.79 µL/min/mg. The t1/2 in series [6] (microsomes, 0.75 h, 3 µM) was determined as 1.72 h. This molecule yielded an inhibition in series [2] of 96%.
With `COc1cc(CNCCN(C)C)ccc1-c1cc2c(N[C@H](CO)c3ccccc3)ncnc2[nH]1`, the IC50 in series [1] came to 0.3 nM. In [2], this molecule gave an inhibition of 100%.
The matching figures for `NC(=O)Cc1cccc(-c2cc3c(N[C@H](CO)c4ccccc4)ncnc3[nH]2)c1`: 0.7 nM and 100%.
The matching figures for `COc1cc(NS(C)(=O)=O)ccc1-c1cc2c(N[C@H](CO)c3ccccc3)ncnc2[nH]1`: 0.3 nM and 100%.
In the case of `OCc1cc(-c2cc3c(N[C@H](CO)c4ccccc4)ncnc3[nH]2)ccc1F`, the IC50 in [1] stood at 1.6 nM. Moreover, the inhibition in series [2] came to 96%.
`C[C@@H](Nc1ncnc2[nH]c(-c3ccccc3OC(F)F)cc12)c1ccccc1`: in [1], the IC50 amounted to 0.8 nM. Moreover, the microsomal CLint at 3 µM in [5] turned out to be 56.2 µL/min/mg. Further, the half-life at 3 µM in [6] worked out at 0.412 h. This molecule showed an inhibition in series [2] of 98%.
With `COc1cc(C(N)=O)ccc1-c1cc2c(N[C@H](C)c3ccccc3)ncnc2[nH]1`, the IC50 in series [1] came to 0.4 nM. Further, the inhibition in series [2] amounted to 98%.
The matching figures for `COc1cc(C(N)=O)ccc1-c1cc2c(N[C@H](CO)c3ccccc3)ncnc2[nH]1`: 0.5 nM and 99%.
The matching figures for `Cn1c(-c2ccccc2)cc2c(N[C@H](CO)c3ccccc3)ncnc21`: 900 nM and 20%.
For `COC[C@@H](Nc1ncnc2[nH]c(-c3ccc(CO)cc3OC)cc12)c1ccccc1`, the IC50 in [1] came to 0.5 nM. For the same molecule, the inhibition in series [2] amounted to 98%.
The like results for `C[C@@H](Nc1ncnc2[nH]c(-c3ccncc3)cc12)c1ccccc1` were, in that order, 0.6 nM and 97%.
As for `CCOc1ccccc1-c1cc2c(N[C@H](CCO)c3ccccc3)ncnc2[nH]1`, the values for the IC50 in series [12], in series [1] and in series [13] were 4900 nM, 0.1 nM and 99 nM, respectively. This molecule also yielded an inhibition in series [2] of 100%.
Take `CN(C)CCNCc1ccc(-c2cc3c(N[C@H](CO)c4ccccc4)ncnc3[nH]2)cc1`: the IC50 in [1] is 0.3 nM. This molecule also gave an inhibition in series [2] of 97%.
For `COc1cc(CNCCN2CCNCC2)ccc1-c1cc2c(N[C@H](CO)c3ccccc3)ncnc2[nH]1`, the IC50 came to 6200 nM in [12], 0.1 nM in [1] and 396 nM in series [13]. This molecule also gave an inhibition in series [2] of 98%.
The like results for `COc1cc(CNCCN(C)C)ccc1-c1cc2c(N[C@H](C)c3ccccc3)ncnc2[nH]1` were, in that order, 5000 nM, 0.1 nM, 90 nM and 99%.
Take `COC[C@@H](Nc1ncnc2[nH]c(-c3ccccc3OC(F)F)cc12)c1ccccc1`: the IC50 in series [1] was found to be 1.3 nM. For the same molecule, the inhibition in series [2] amounted to 96%.
On to `CC(=O)Nc1ccc(-c2cc3c(N[C@H](C)c4ccccc4)ncnc3[nH]2)cc1`, for which the concentration for half-maximal inhibition (IC50) in [1] turned out to be 0.7 nM. Also, in series [2], the inhibition was 97%.
Regarding `[2H]C([2H])([2H])Oc1ccccc1-c1cc2c(N[C@H](CO)c3ccccc3)ncnc2[nH]1`, the IC50 in series [1] was 0.4 nM.
As for `OCc1ccc(-c2cc3c(N[C@H](CO)c4ccccc4)ncnc3[nH]2)cc1F`, the IC50 in [12] came to 5800 nM; in [1] it was 0.6 nM; in series [13], 158 nM. Besides, the inhibition in [2] came to 97%.
On to `COc1cc(CNCCN2CCCCC2)ccc1-c1cc2c(N[C@H](CO)c3ccccc3)ncnc2[nH]1`, for which, in [1], the IC50 came out at 0.1 nM. In [2], this molecule registered an inhibition of 99%.
For `C[C@@H](Nc1ncnc2[nH]c(-c3cccc(C(N)=O)c3)cc12)c1ccccc1`, the IC50 in [1] worked out at 1.4 nM. Also, in series [2], the inhibition turned out to be 95%.
In the case of `COc1cc(CO)ccc1-c1cc2c(N[C@H](CO)c3ccccc3)ncnc2[nH]1`, the half-maximal inhibitory concentration (IC50) in series [14] is more than 25000 nM. Further, in series [3], the fraction unbound at 5 µM was determined as 0.08. Besides, the Papp in series [8] is 50.84 10^-6 cm/s; in series [10], 2.98 10^-6 cm/s. In series [9], this molecule gave a solubility (kinetic) at 2 h of more than 100 µM. Further, the microsomal CLint at 3 µM in [5] was 12.6 µL/min/mg. In series [6], the half-life at 3 µM is 1.83 h.
Take `COc1cc(CNCCN2CCOCC2)ccc1-c1cc2c(N[C@H](CO)c3ccccc3)ncnc2[nH]1`: in [1], the IC50 came out at 0.1 nM. Further, in series [2], the inhibition turned out to be 97%.
Regarding `CS(=O)(=O)Nc1ccc(-c2cc3c(N[C@H](CO)c4ccccc4)ncnc3[nH]2)cc1`, the Papp B→A at 2 h, 10 µM in [8] was 29.2 ×10⁻⁶ cm/s. In addition, the kinetic solubility at 2 h in series [9] was more than 100 µM. Also, the apparent permeability from apical to basolateral (Papp A→B) at 2 h, 10 µM in series [10] was found to be 0.02 ×10⁻⁶ cm/s. Also, the microsomal CLint at 3 µM in series [5] came out at 10.2 µL/min/mg. Further, the half-life at 3 µM in series [6] was 2.27 h.
Consider `COc1cc(CN(C)CCN(C)C)ccc1-c1cc2c(N[C@H](CO)c3ccccc3)ncnc2[nH]1`, for which the values for the IC50 in series [12], in series [1] and in series [13] were more than 10000 nM, 0.1 nM and 77 nM, respectively. The inhibition in [2] is 99%.
With `C[C@@H](Nc1ncnc2[nH]c(-c3ccc(S(C)(=O)=O)cc3)cc12)c1ccccc1`, in [1], the IC50 amounted to 0.4 nM. Besides, in series [2], the inhibition came to 97%.

(Values after ChEMBL document CHEMBL4715760, “Balancing potency, metabolic stability and permeability in pyrrolopyrimidine-based EGFR inhibitors” (Eur J Med Chem, 2016).)
